Data on 36 molecules can be found in US20050096354A1 (published 2005).

The melting point is the temperature, or range, at which the solid turns liquid.

`COc1ccccc1-c1c(C#N)nn(-c2c(Cl)cc(C(F)(F)F)cc2Cl)c1N` showed a melting point of 193 °C.

`N#Cc1nn(-c2c(Cl)cc(C(F)(F)F)cc2Cl)c(N)c1-c1ccoc1[S+]([O-])C(F)(F)F` (stereo not drawn) had a melting point of 141 to 142 °C.

For the molecule `N#Cc1nn(-c2c(Cl)cc(C(F)(F)F)cc2Cl)c(N)c1-c1ccsc1`, the melting point is 210 to 212 °C.

With `N#Cc1nn(-c2c(Cl)cc(C(F)(F)F)cc2Cl)c(N)c1-c1onc(Br)c1Br`, the melting point is 279 °C.

The molecule `N#Cc1nn(-c2c(Cl)cc(C(F)(F)F)cc2Cl)c(N)c1-c1cccc(F)c1` registered a melting point of 164 °C.

The molecule `N#Cc1nn(-c2c(Cl)cc(C(F)(F)F)cc2Cl)c(N)c1-c1ccc(Br)cc1` gave a melting point of 242 to 244 °C.

In turn, `N#Cc1nn(-c2c(Cl)cccc2Cl)c(N)c1-c1ccco1` gave a melting point of 222.6 °C.

Molecule `N#Cc1nn(-c2c(Cl)cc(C(F)(F)F)cc2Cl)c(N)c1-c1cc(Cl)cc(Cl)c1` registered a melting point of 228 to 230 °C.

In turn, `N#Cc1nn(-c2c(Cl)cc(C(F)(F)F)cc2Cl)c(N)c1-c1cccs1` yielded a melting point of 206 to 207 °C.

On to `N#Cc1nn(-c2c(Cl)cc(C(F)(F)F)cc2Cl)c(N)c1-c1cccnc1`, for which the melting point lay in the range of 265 to 267 °C.

`N#Cc1nn(-c2c(Cl)cc(C(F)(F)F)cc2Cl)c(N)c1-c1cccc([N+](=O)[O-])c1` had a melting point of 212 to 214 °C.

Turning to `Cc1nc(-c2c(C#N)nn(-c3c(Cl)cc(C(F)(F)F)cc3Cl)c2N)cs1`, the melting point lay within 226 to 228 °C.

`N#Cc1nn(-c2c(Cl)cc(C(F)(F)F)cc2Cl)c(N)c1-c1ccccc1Cl` yielded a melting point of 192 to 193 °C.

`Cc1ccccc1-c1c(C#N)nn(-c2c(Cl)cc(C(F)(F)F)cc2Cl)c1N` displayed a melting point of 199 to 202 °C.

With `N#Cc1nn(-c2c(Cl)cc(C(F)(F)F)cc2Cl)c(N)c1-c1ccoc1`, the melting point fell in the range of 180 to 181 °C.

Regarding `N#Cc1nn(-c2c(Cl)cc(C(F)(F)F)cc2Cl)c(N)c1C1CC1(Br)Br` (stereo not drawn), the melting point is 178 to 179 °C.

In the case of `N#Cc1nn(-c2c(Cl)cc(C(F)(F)F)cc2Cl)c(N)c1-c1ccccc1F`, the melting point stood at 197 °C.

Take `Cc1ccc(-c2c(C#N)nn(-c3c(Cl)cc(C(F)(F)F)cc3Cl)c2N)cc1`: the melting point lay within 243 to 244 °C.

Turning to `N#Cc1nn(-c2c(Cl)cc(C(F)(F)F)cc2Cl)c(N)c1-c1ccc(C(F)(F)F)o1`, the melting point was in the range of 148 to 151 °C.

The molecule `COc1ccc(-c2c(C#N)nn(-c3c(Cl)cc(C(F)(F)F)cc3Cl)c2N)cc1OC` yielded a melting point of 250 °C.

`N#Cc1nn(-c2c(Cl)cc(C(F)(F)F)cc2Cl)c(N)c1-c1ccc(SC(F)(F)F)s1` yielded a melting point of 162 to 163 °C.

`N#Cc1nn(-c2c(Cl)cc(C(F)(F)F)cc2Cl)c(N)c1-c1ccc(F)c(Cl)c1`: the melting point was in the range of 197 to 198 °C.

Regarding `N#Cc1nn(-c2c(Cl)cc(C(F)(F)F)cc2Cl)c(N)c1-c1ccc(Br)s1`, the melting point is 214 °C.

Consider `N#Cc1nn(-c2c(Cl)cc(C(F)(F)F)cc2Cl)c(N)c1-c1ccc(Cl)cc1`, for which the melting point lay within 235 to 237 °C.

Turning to `N#Cc1nn(-c2c(Cl)cc(C(F)(F)F)cc2Cl)c(N)c1-c1ccccc1`, the melting point lay within 198 to 199 °C.

Molecule `N#Cc1nn(-c2c(Cl)cc(C(F)(F)F)cc2Cl)c(N)c1-c1cc(Cl)oc1Cl` came in with a melting point of 193 to 194 °C.

As for `N#Cc1nn(-c2c(Cl)cc(C(F)(F)F)cc2Cl)c(N)c1-c1cccc(Cl)c1`, the melting point lay in the range of 161 to 162 °C.

For the molecule `N#Cc1nn(-c2c(Cl)cc(C(F)(F)F)cc2Cl)c(N)c1-c1cc(Br)no1`, the melting point is 227 °C.

Molecule `COC(=O)c1cccc(-c2c(C#N)nn(-c3c(Cl)cc(C(F)(F)F)cc3Cl)c2N)c1` returned a melting point of 214 to 216 °C.

On to `N#Cc1nn(-c2c(Cl)cc(C(F)(F)F)cc2Cl)c(N)c1-c1ccccc1C(F)(F)F`, for which the melting point was in the range of 210 to 212 °C.

In the case of `N#Cc1nn(-c2c(Cl)cc(C(F)(F)F)cc2Cl)c(N)c1-c1ccncc1`, the melting point was 266 to 268 °C (dec.).

On to `N#Cc1nn(-c2c(Cl)cc(C(F)(F)F)cc2Cl)c(N)c1-c1cccc(N)c1`, for which the melting point came out at 187 °C.

Turning to `N#Cc1nn(-c2c(Cl)cc(C(F)(F)F)cc2Cl)c(N)c1-c1cccc2ccccc12`, the melting point was determined as 208 °C.

Molecule `N#Cc1nn(-c2c(Cl)cc(C(F)(F)F)cc2Cl)c(N)c1-c1ccc2c(c1)OCO2` yielded a melting point of 222 °C.

`COc1ccc(-c2c(C#N)nn(-c3c(Cl)cc(C(F)(F)F)cc3Cl)c2N)cc1` came in with a melting point of 222 °C.

Regarding `N#Cc1nn(-c2c(Cl)cc(C(F)(F)F)cc2Cl)c(N)c1-c1ccc(F)cc1`, the melting point lay in the range of 222 to 223 °C.
